# Assay results from patent US10081628B2, “Apoptosis-inducing agents for the treatment of cancer and immune and autoimmune diseases” (AbbVie Inc., priority 2013, dated 2018).
# pEC50, pKi: −log10 of the molar value. Where two headings read alike, the source gives them in different places.
# How the values were obtained:
# GST-Bcl-2 = GST-Bcl-2 (Homo sapiens, UniProt P10415); experiment: TR-FRET Bcl-2 binding assay (F-Bak peptide probe); conditions: GST-Bcl-2 1 nM, F-Bak peptide probe 100 nM, Tb-anti-GST 1 nM; Wang's equation; '<' = below limit of detection
# How it was run: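 Competitive TR-FRET displacement of F-Bak peptide probe from GST-Bcl-2 detected with Tb-anti-GST antibody; compounds serially diluted in DMSO from 50 μM (2× starting concentration). Mixtures incubated 3 h at room temperature, read at 340 nm excitation with 520 and 495 nm emission. Ki derived by Wang's equation.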
# RS4;11 cells = experiment: RS4;11 cell viability assay (CellTiter Glo); type: cell-based; conditions: 10% human serum, 48 hours
# How it was run: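 Cells seeded at 50,000 per well and exposed to compounds for 48 h at 37 C, 5% CO2 in the presence of 10% human serum. Viability read by CellTiter Glo; EC50 derived from percentage of viable cells versus untreated controls.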
# lymphocytes = experiment: Lymphocyte reduction in C57BL/6 mice; type: in vivo; conditions: Mus musculus, ip
# How it was run: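 C57Bl/6 mice dosed intraperitoneally at 30 mg/kg daily for four days. Blood cell counts by hematology analyzer 24 hours after first and last doses; exposure (AUC) from samples at 1, 6, 10 and 24 hours after last dose.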
# [1] = 30 mg/kg intraperitoneal every day for four days, 24 hours after the last dose, read-out: Lymphocyte reduction % inh. day 4
# [2] = 30 mg/kg intraperitoneal every day, 24 hours after the first dose, read-out: Lymphocyte reduction % inh. day 1
# GST-Bcl-2, sequence (P10415 whole entry): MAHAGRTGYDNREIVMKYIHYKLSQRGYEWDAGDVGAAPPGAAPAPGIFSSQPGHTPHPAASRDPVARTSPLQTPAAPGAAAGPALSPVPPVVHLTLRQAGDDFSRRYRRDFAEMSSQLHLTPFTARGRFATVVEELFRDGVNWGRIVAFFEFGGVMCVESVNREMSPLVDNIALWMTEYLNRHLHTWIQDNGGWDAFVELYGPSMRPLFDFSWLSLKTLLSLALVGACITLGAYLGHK
Compound,pKi (GST-Bcl-2),pEC50 (RS4;11 cells),inhibition at 30 mg/kg (lymphocytes; [1]) [%],inhibition at 30 mg/kg (lymphocytes; [2]) [%]
"CC1(C)CCC(CN2CCN(c3ccc(C(=O)NS(=O)(=O)c4ccc(NCC5(O)CCC(F)(F)CC5)c([N+](=O)[O-])c4)c(Oc4cnc5[nH]ccc5c4)c3)CC2)=C(c2ccc(Cl)cc2)C1 [Example 26, 4-(4-{[2-(4-chlorophenyl)-4,4-dimethylcyclohex-1-en-1-yl]methyl}piperazin-1-yl)-N-[(4-{[(4,4-difluoro-1-hydroxycyclohexyl)methyl]amino}-3-nitrophenyl)sulfonyl]-2-(1H-pyrrolo[2,3-b]pyridin-5-yloxy)benzamide]",> 10.00,7.36,23,38
"COC1(CNc2ccc(S(=O)(=O)NC(=O)c3ccc(N4CCN(CC5=C(c6ccc(Cl)cc6)CC(C)(C)CC5)CC4)cc3Oc3cnc4[nH]ccc4c3)cc2[N+](=O)[O-])CCOCC1 [Example 27, 4-(4-{[2-(4-chlorophenyl)-4,4-dimethylcyclohex-1-en-1-yl]methyl}piperazin-1-yl)-N-[(4-{[(4-methoxytetrahydro-2H-pyran-4-yl)methyl]amino}-3-nitrophenyl)sulfonyl]-2-(1H-pyrrolo[2,3-b]pyridin-5-yloxy)benzamide]",> 10.00,7.01,21,23
"C[C@@H]1C[C@H](CNc2ccc(S(=O)(=O)NC(=O)c3ccc(N4CCN(CC5=C(c6ccc(Cl)cc6)CC(C)(C)CC5)CC4)cc3Oc3cnc4[nH]ccc4c3)cc2[N+](=O)[O-])C[C@H](C)O1 [Example 31, 4-(4-{[2-(4-chlorophenyl)-4,4-dimethylcyclohex-1-en-1-yl]methyl}piperazin-1-yl)-N-{[4-({[(2R,4R,6S)-2,6-dimethyltetrahydro-2H-pyran-4-yl]methyl}amino)-3-nitrophenyl]sulfonyl}-2-(1H-pyrrolo[2,3-b]pyridin-5-yloxy)benzamide]",> 10.00,7.80,55,53
"CC1(C)CCC(CN2CCN(c3ccc(C(=O)NS(=O)(=O)c4ccc(NC[C@@H]5CCOC(C)(C)C5)c([N+](=O)[O-])c4)c(Oc4cnc5[nH]ccc5c4)c3)CC2)=C(c2ccc(Cl)cc2)C1 [Example 34, 4-(4-{[2-(4-chlorophenyl)-4,4-dimethylcyclohex-1-en-1-yl]methyl}piperazin-1-yl)-N-{[4-({[(4R)-2,2-dimethyltetrahydro-2H-pyran-4-yl]methyl}amino)-3-nitrophenyl]sulfonyl}-2-(1H-pyrrolo[2,3-b]pyridin-5-yloxy)benzamide]",> 10.00,7.89,61,< 15
"C[C@@H]1COC[C@H](CNc2ccc(S(=O)(=O)NC(=O)c3ccc(N4CCN(CC5=C(c6ccc(Cl)cc6)CC(C)(C)CC5)CC4)cc3Oc3cnc4[nH]ccc4c3)cc2[N+](=O)[O-])O1 [Example 35, 4-(4-{[2-(4-chlorophenyl)-4,4-dimethylcyclohex-1-en-1-yl]methyl}piperazin-1-yl)-N-{[4-({[(2S,6R)-6-methyl-1,4-dioxan-2-yl]methyl}amino)-3-nitrophenyl]sulfonyl}-2-(1H-pyrrolo[2,3-b]pyridin-5-yloxy)benzamide]",> 10.00,7.92,49,54
"CC1(C)CCC(CN2CCN(c3ccc(C(=O)NS(=O)(=O)c4ccc(NC[C@@H]5CCOC5)c([N+](=O)[O-])c4)c(Oc4cnc5[nH]ccc5c4)c3)CC2)=C(c2ccc(Cl)cc2)C1 [Example 36, 4-(4-{[2-(4-chlorophenyl)-4,4-dimethylcyclohex-1-en-1-yl]methyl}piperazin-1-yl)-N-[(3-nitro-4-{[(3 S)-tetrahydrofuran-3-ylmethyl]amino}phenyl)sulfonyl]-2-(1H-pyrrolo[2,3-b]pyridin-5-yloxy)benzamide]",> 10.00,7.49,42,47
